Assay results taken from patent US20100093616A1 (priority 2005, published 2010).

How the values were obtained:
Type in all cases: in vivo, Lewis Rats
[1] = system: Experimental Autoimmune Encephalytis (EAE); experiment: Prophylactic scheme in EAE animal model (Example 2); conditions: for Clinical scores maximum / Clinical scores minimum / Incidence (%): EGF/GHRP-6 200-740, EGF 200, GHRP-6 740 μg/kg/day; for N° of perivascular inflammatory infiltrates (Means ± SD): brain and spinal cord, day 40, EGF/GHRP-6 200-740, EGF 200, GHRP-6 740 μg/kg/day; for Incidence (%): i.p. days -10 to -1 before first immunization, 8 rats per group
Source text: (§1) This prophylactic scheme was followed for 10 days (−10 to −1 day before the first immunization), using the intraperitoneal administration route. Clinical scores was based on the following grading: 0; no symptom, 1; tail paralysis, 2; paralysis of any of the hind limbs, 3; full paralysis of the hind limbs, 4; complete paralysis of the fore and hind limbs 5; moribund or death. Weight loss and vesical and rectal sphincter incontinency, which are also clinical signs of the disease, are scored by adding 0.5 to the clinical index previously described. Forty days after the first immunization the animals were anesthetized and euthanized, the encephalon and spinal cord were processed for histopathological study (10% de formalin, H & E y Luxol Blue staining). For the histopathological analysis the following parameters were consider: number and size of perivascular inflammatory infiltrates, number of demyelination lesions, number of apoptotic neurons and glial cells and astrocytes reactivity. The microscopic study was blindly conducted.

[2] = system: Experimental Autoimmune Encephalytis (EAE); experiment: Therapeutical effect in EAE biomodel (Example 1); conditions: therapeutical scheme; for N° of perivascular inflammatory infiltrates (Means ± SD): brain and spinal cord, day 40; for Incidence (%): i.p. 10 days from day 10 after first immunization, EGF/GHRP-6 200-740 μg/kg/day, EGF 200 μg/kg/day, GHRP-6 740 μg/kg/day, 8 rats per group
Procedure: as §1, with “Female Lewis Rats (130 g), were subcutaneously immunized with guinea pig spinal cord homogenate (5 mg) in PBS (50%) and complete Freund adjuvant (50%), during days 0 and 6. […] This” for “This”, “therapeutical” for “prophylactic”, “days,” for “days (−10 to −1 day before the first immunization),”, “using” for “using the”, “administration.” for “administration route.”

[3] = system: Experimental Autoimmune Encephalytis (EAE); experiment: Dose study of the combination in EAE model, therapeutical scheme (Example 3); conditions: EGF component of the combination
Procedure: Looking for a range of doses for the pharmaceutical combination that would be efficient for the therapeutic effects, it was used in the afore mentioned EAE model Female Lewis Rats (130 g), were subcutaneously immunized with guinea pig spinal cord homogenate (5 mg) in PBS (50%) and complete Freund adjuvant (50%), during days 0 and 6.
as §1, with “therapeutical” for “prophylactic”, “days,” for “days (−10 to −1 day before the first immunization),”, “using” for “using the”, “administration.” for “administration route.”

[4] = i.p. days -10 to -1, EGF/GHRP-6 200-740, EGF 200, GHRP-6 740 μg/kg/day
[5] = EGF/GHRP-6 200-740, EGF 200, GHRP-6 740 μg/kg/day
[6] = i.p. 10 days, EGF/GHRP-6 200-740, EGF 200, GHRP-6 740 μg/kg/day
[7] = i.p. 10 days, EGF/GHRP-6 200-740, EGF 200, GHRP-6 740 μg/kg/day, scale 0-5

Row | Substance | Clinical scores maximum ([1]; scale 0-5) | Clinical scores minimum ([1]; scale 0-5) | N° of perivascular inflammatory infiltrates (Means ± SD) [1] | Days of Debut (Mean ± SD) [1, 4] [days] | Incidence (%) [1] [%] | N° of perivascular inflammatory infiltrates (Means ± SD) [2, 5] | Incidence (%) [2] [%] | Days of Debut (Mean ± SD) [2, 6] [days] | Disease duration [2, 6] | Clinical scores minimum [2, 7] | dose range that maintains usefulness of the combination for protection against induction of EAE [3] [µg/kg/day] | Clinical scores Means ± SD (mean clinical index) ([1]; i.p. days -10 to -1, EGF/GHRP-6 200-740, EGF 200, GHRP-6 740 μg/kg/day, scale 0-5) | Clinical Scores Mean ± SD (mean clinical index) [2, 7] | Clinical scores maximum [2, 7]
1 | Epidermal Growth Factor [EGF] | 4 | 1 | 4 ± 1.6 | 11.5 ± 0.57 | 100 | 4.5 ± 1.9 | 100 | 12.5 ± 0.57 | 12.7 ± 4.1 | 1 | 50 to 400 | – | – | –
2 | His-D-Trp-Ala-Trp-D-Phe-Lys-NH sub 2 [GHRP-6] | 4 | 1 | 2.7 ± 1.95 | 11.7 ± 2.3 | 100 | 2.25 ± 1.25 | 100 | 13.7 ± 2.3 | 15.5 ± 6.7 | 0.5 | – | 2.7±1.03 | 1.5±1.6 | 4
